Measured values: patent publication US8026251B2, “Huperzine A and its derivatives as analgesic agents” (priority 2005, dated 2011)

How the values were obtained:
mice = test: Hot plate test (pain threshold, mice); assay type: in vivo, Kunming mice; conditions: x ± s, n = 10; for Pain thresholds before administration: hot plate 55°C, baseline before administration; for Pain thresholds after administration at 30 min / Pain thresholds after administration at 60 min / Pain thresholds after administration at 120 min / Pain thresholds after administration at 180 min / Pain thresholds after administration at 240 min: hot plate
Description: Kunming mice, grade 2, female, weight of 20±2 g, purchased from the Division of Laboratory Animals, Department of Medical Sciences of Peking University, animal license No.: SCX Jing 2002-0001.
1.2.1 Solutions of huperzine A and huperzine A derivatives in normal saline water were prepared for stomach perfusion of mice.
1.2.2 Solutions of bucinnazine hydrochloride tablets, 30 mg/tablet, manufactured by Tianjin Lisheng Pharmaceutical Factory, approval No.: 0201001, in normal saline solution were prepared at a concentration of 1.5 mg/ml for stomach perfusion of mice.
A water bath was heated to a constant temperature of 55±0.5° C. The bottom of a metal plate was placed in contact with water surface. A mouse was placed on the hot plate and a timer was activated. The timer was deactivated when the mouse began licking its rear feet. The measured time was taken as the pain threshold. The pain threshold was measured two times for each mouse, and those mice whose average pain threshold was less than 30 s were qualified for the experiment.
Qualified mice were randomly divided into groups of 10. At first the pain threshold before administration of a drug was measured. Then drugs were administered as identified in Table 1. The administration volume was 0.2 ml per each 10 g of weight. Normal saline solution was administered to the control group. After administration, the pain threshold was measured at different time periods post-administration. A statistical t-test was calculated of the group interval, based on the test data.

migraine = test: Treatment of migraine with oral huperzine A (clinical cases); assay type: in vivo, human; conditions: for Time from administration until headache completely disappeared: two tablets (50 μg/tablet) oral on occurrence of migraine
Description: Test 2: Treatment of Migraine with Oral Huperzine A
Drug: Huperzine A Tablet (50 μg/tablet, manufactured by Henan Zhulin Zhongsheng Pharmaceutical Factory.)
Previously treated with bufferin plus, but recently reported that analgesic effects of bufferin plus have weakened.
Methods: On occurrence of migraine pains (8 times within a month), two tablets of huperzine A were administered. Within 20 minutes from administration, the headache has completely disappeared.
Patient: with a medical history of migraine of 2 years. Previously treated with ergotamine, but recently reported that analgesic effects of ergotamine have weakened.
Methods: On occurrence of migraine pains (10 times within a month), two tablets of huperzine A were administered. Within 30 minutes from administration, the headache has completely disappeared.
Patient: with a medical history of migraine of 3 years, occurring at a frequency of about 8-12 times per month.
Methods: One tablet of huperzine A was administered per day orally.

Compound: C/C=C1\[C@H]2C=C(C)C[C@]1(N)c1ccc(=O)[nH]c1C2 [Huperzine A, (5R,9R,11E)-5-amino-11-ethylidene-5,6,9,10-tetrahydro-7-methyl-5,9-methanocycloocta[b]pyridin-2(1H)-one]
- Pain thresholds before administration (mice; group later dosed 0.2 mg/kg by stomach perfusion): 14.2 ± 4.49 s
- Pain thresholds before administration (mice; group later dosed 0.4 mg/kg by stomach perfusion): 15.3 ± 2.86 s
- Pain thresholds after administration at 30 min (mice; 0.2 mg/kg stomach perfusion): 13.3 ± 4.05 s
- Pain thresholds after administration at 60 min (mice; 0.2 mg/kg stomach perfusion): 14.5 ± 5.08 s
- Pain thresholds after administration at 120 min (mice; 0.2 mg/kg stomach perfusion): 14.2 ± 5.20 s
- Pain thresholds after administration at 180 min (mice; 0.2 mg/kg stomach perfusion): 13.3 ± 3.68 s
- Pain thresholds after administration at 240 min (mice; 0.2 mg/kg stomach perfusion): 14.6 ± 2.84 s
- Pain thresholds after administration at 30 min (mice; 0.4 mg/kg stomach perfusion): 28.4 ± 8.12 s
- Pain thresholds after administration at 60 min (mice; 0.4 mg/kg stomach perfusion): 31.7 ± 10.56 s
- Pain thresholds after administration at 120 min (mice; 0.4 mg/kg stomach perfusion): 27.6 ± 8.22 s
- Pain thresholds after administration at 180 min (mice; 0.4 mg/kg stomach perfusion): 25.5 ± 8.88 s
- Pain thresholds after administration at 240 min (mice; 0.4 mg/kg stomach perfusion): 27.8 ± 5.94 s
- Time from administration until headache completely disappeared (migraine; Case 1, migraine patient): ≤ 20 min
- Analgesic effects over a period of one month (migraine; Case 1, two tablets (50 μg/tablet) oral per attack): Good analgesic effects
- Side effects (migraine; Case 1, two tablets (50 μg/tablet) oral per attack, 8 times within a month): Minor side effects
- Time from administration until headache completely disappeared (migraine; Case 2, migraine patient): ≤ 30 min
- Analgesic effects over a period of one month (migraine; Case 2, two tablets (50 μg/tablet) oral per attack): Good analgesic effects
- Side effects (migraine; Case 2, two tablets (50 μg/tablet) oral per attack, 10 times within a month): No side effects
- Migraine attacks over the period of 1 month (prevention) (migraine; Case 3, migraine about 8-12 times per month, one tablet (50 μg) per day orally): did not complain of migraine attacks
- Effect of long-term administration on migraine attacks (migraine; long-term administration, summary statement): prevents migraine attacks
- Effect on migraine in clinical studies (migraine; oral administration, summary statement): alleviates and/or cures migraine

Compound: C/C=C1\[C@H]2C=C(C)C[C@]1(NC(=O)OCC(C)C)c1ccc(=O)[nH]c1C2 [Example 7, (5R,9R,11E)-5-(2-methylpropoxycarbonylamino)-11-ethylidene-5,6,9,10-tetrahydro-7-methyl-5,9-methanocycloocta[b]pyridin-2(1H)-one]
- Pain thresholds before administration (mice; group later dosed 0.6 mg/kg by stomach perfusion): 15.8 ± 3.97 s
- Pain thresholds after administration at 30 min (mice; 0.6 mg/kg stomach perfusion): 28.5 ± 2.55 s
- Pain thresholds after administration at 60 min (mice; 0.6 mg/kg stomach perfusion): 30.1 ± 6.90 s
- Pain thresholds after administration at 120 min (mice; 0.6 mg/kg stomach perfusion): 27.7 ± 4.49 s
- Pain thresholds after administration at 180 min (mice; 0.6 mg/kg stomach perfusion): 23.1 ± 2.41 s
